Test results: the supplement of paper PMC5579334
± gives the standard deviation of the averaged measurements.

Key:
STS26T [1] = assay: relative IC50 (inflection point of fitted dose-response curve, CellTiter-Glo viability, 72 h; top asymptote may be below 50% inhibition); higher = less potent
How it was run: (§1)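 MPNST cell lines and primary human Schwann cells were seeded at 750–1000 cells per well into 384-well plates preprinted with each compound at five concentrations in 10-fold steps, then incubated 72 h at 37 °C, 5% CO2. CellTiter-Glo ATP luminescence gave viability, scaled between vehicle and positive-control wells, with duplicates averaged where present. Curves were fitted with a four-parameter logistic model. Percent inhibition refers to the top concentration, while drug sensitivity score and relative IC50, censored at the top concentration, come from these fits.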

HSC1 = assay: relative IC50 (inflection point of fitted dose-response curve, CellTox-Green cytotoxicity, 72 h; top asymptote may be below 50%); higher = less potent
How it was run: (§2)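 For 72 h at 37 °C, MPNST cell lines and primary human Schwann cells were exposed in 384-well plates to five 10-fold compound dilutions. CellTox-Green, added before seeding at a final 1:1000 dilution, gave fluorescence from DNA released by disrupted cells. Signals were scaled to vehicle and positive-control wells, cultures failing plate quality control were left out, and four-parameter logistic fits were applied. Relative IC50 and drug sensitivity score were derived from the fits, with IC50 censored at the top concentration.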

HSC2 = assay: as above
How it was run: as §2

STS26T [2] = assay: as above
How it was run: as §2

HS-PSS [3] = assay: relative IC50 (inflection point of fitted dose-response curve, CellTiter-Glo viability, 72 h; top asymptote may be below 50% inhibition); higher = less potent
How it was run: as §1

HS-Sch-2 [4] = assay: as above
How it was run: as §1

ST8814 [5] = assay: as above
How it was run: as §1

YST-1 [6] = assay: as above
How it was run: as §1

HS-PSS [7] = assay: relative IC50 (inflection point of fitted dose-response curve, CellTox-Green cytotoxicity, 72 h; top asymptote may be below 50%); higher = less potent
How it was run: as §2

ST8814 [8] = assay: as above
How it was run: as §2

[9] = system: HSC1 (primary human Schwann cells); assay: drug sensitivity score (DSS, CellTiter-Glo viability, 72 h) (DSS (dimensionless)); higher = more sensitive; extreme values may be limits of the assay
How it was run: as §1

HS-PSS [10] = assay: as above
How it was run: as §1

S1507-2 [11] = assay: as above
How it was run: as §1

[12] = system: HSC2 (primary human Schwann cells); assay: as above
How it was run: as §1

HS-Sch-2 [13] = assay: as above
How it was run: as §1

S462 [14] = assay: as above
How it was run: as §1

ST8814 [15] = assay: as above
How it was run: as §1

YST-1 [16] = assay: as above
How it was run: as §1

STS26T [17] = assay: as above
How it was run: as §1

[18] = system: HSC1 (primary human Schwann cells); assay: drug sensitivity score (DSS, CellTox-Green cytotoxicity, 72 h) (DSS (dimensionless)); higher = more cytotoxic; extreme values may be limits of the assay
How it was run: as §2

HS-PSS [19] = assay: as above
How it was run: as §2

S1507-2 [20] = assay: as above
How it was run: as §2

[21] = system: HSC2 (primary human Schwann cells); assay: as above
How it was run: as §2

ST8814 [22] = assay: as above
How it was run: as §2

STS26T [23] = assay: as above
How it was run: as §2

[24] = system: HSC1 (primary human Schwann cells); assay: % inhibition of CellTiter-Glo viability at highest tested concentration (72 h), relative to DMSO and benzethonium chloride controls; higher = more inhibition
How it was run: as §1

HS-PSS [25] = assay: as above
How it was run: as §1

S1507-2 [26] = assay: as above
How it was run: as §1

[27] = system: HSC2 (primary human Schwann cells); assay: as above
How it was run: as §1

HS-Sch-2 [28] = assay: as above
How it was run: as §1

S462 [29] = assay: as above
How it was run: as §1

ST8814 [30] = assay: as above
How it was run: as §1

YST-1 [31] = assay: as above
How it was run: as §1

STS26T [32] = assay: as above
How it was run: as §1

| SMILES | relative IC50 (STS26T [1]) | relative IC50 (HSC1) | relative IC50 (HSC2) | relative IC50 (STS26T [2]) | relative IC50 (HS-PSS [3]) | relative IC50 (HS-Sch-2 [4]) | relative IC50 (ST8814 [5]) | relative IC50 (YST-1 [6]) | relative IC50 (HS-PSS [7]) | relative IC50 (ST8814 [8]) | drug sensitivity score [9] | drug sensitivity score (HS-PSS [10]) | drug sensitivity score (S1507-2 [11]) | drug sensitivity score [12] | drug sensitivity score (HS-Sch-2 [13]) | drug sensitivity score (S462 [14]) | drug sensitivity score (ST8814 [15]) | drug sensitivity score (YST-1 [16]) | drug sensitivity score (STS26T [17]) | drug sensitivity score [18] | drug sensitivity score (HS-PSS [19]) | drug sensitivity score (S1507-2 [20]) | drug sensitivity score [21] | drug sensitivity score (ST8814 [22]) | drug sensitivity score (STS26T [23]) | % inhibition [24] | % inhibition (HS-PSS [25]) | % inhibition (S1507-2 [26]) | % inhibition [27] | % inhibition (HS-Sch-2 [28]) | % inhibition (S462 [29]) | % inhibition (ST8814 [30]) | % inhibition (YST-1 [31]) | % inhibition (STS26T [32]) |
| --- | --- | --- | --- | --- | --- | --- | --- | --- | --- | --- | --- | --- | --- | --- | --- | --- | --- | --- | --- | --- | --- | --- | --- | --- | --- | --- | --- | --- | --- | --- | --- | --- | --- | --- |
| CC1(C)CCC(CN2CCN(c3ccc(C(=O)NS(=O)(=O)c4ccc(NCC5CCOCC5)c([N+](=O)[O-])c4)c(Oc4cnc5[nH]ccc5c4)c3)CC2)=C(c2ccc(Cl)cc2)C1 [ABT-199] | > 10000 nM | > 10000 nM | > 10000 nM | > 10000 nM | – | – | – | – | – | – | – | – | – | – | – | – | – | – | – | – | – | – | – | – | – | – | – | – | – | – | – | – | – | – |
| C[C@]12CC[C@H](O)CC1=CC[C@@H]1[C@@H]2CC[C@]2(C)C(c3cccnc3)=CC[C@@H]12 [Abiraterone] | – | > 5000 nM | > 5000 nM | > 5000 nM | > 5000 nM | > 5000 nM | > 5000 nM | > 5000 nM | > 5000 nM | > 5000 nM | – | – | – | – | – | – | – | – | – | – | – | – | – | – | – | – | – | – | – | – | – | – | – | – |
| C[C@@H](Oc1cc(-c2cnn(C3CCNCC3)c2)cnc1N)c1c(Cl)ccc(F)c1Cl [Crizotinib] | > 1000 nM | > 1000 nM | > 1000 nM | > 1000 nM | 367 nM | – | > 1000 nM | 393 nM | > 1000 nM | > 1000 nM | – | – | – | – | – | – | – | – | – | – | – | – | – | – | – | – | – | – | – | – | – | – | – | – |
| COc1cc2ncnc(Nc3ccc(F)c(Cl)c3)c2cc1NC(=O)/C=C/CN1CCCCC1 [Dacomitinib] | – | > 1000 nM | > 1000 nM | > 1000 nM | 144 nM | 148 nM | – | > 1000 nM | – | > 1000 nM | – | – | – | – | – | – | – | – | – | – | – | – | – | – | – | – | – | – | – | – | – | – | – | – |
| CC[C@]1(O)C[C@@H]2CN(CCc3c([nH]c4ccccc34)[C@@](C(=O)OC)(c3cc4c(cc3OC)N(C)[C@H]3[C@@](O)(C(=O)OC)[C@H](OC(C)=O)[C@]5(CC)C=CCN6CC[C@]43[C@@H]65)C2)C1 [Vinblastine] (max concentration tested 1000 nM) | – | – | – | – | – | – | – | – | – | – | 19.5 | 16.2 | 22.63 ± 0.18 | 23.9 | 30 | 29.53 ± 0.036 | 26.8 | 24.8 | 30.1 | 10.7 | 1.24 | 19.7 ± 1.8 | 21.5 | 31.1 | 32.9 | 76% | 67.2% | 81.1 ± 2.3% | 87% | 91.9% | 93.02 ± 0.22% | 84.7% | 83.8% | 92.4% |
| CC[C@]1(O)C[C@H]2CN(CCc3c([nH]c4ccccc34)[C@@](C(=O)OC)(c3cc4c(cc3OC)N(C=O)[C@H]3[C@@](O)(C(=O)OC)[C@H](OC(C)=O)[C@]5(CC)C=CCN6CC[C@]43[C@@H]65)C2)C1 [Vincristine] (max concentration tested 1000 nM) | – | – | – | – | – | – | – | – | – | – | 17.9 | 17 | 21.1 ± 0.68 | 20.9 | 30.5 | 28.88 ± 0.23 | 23.6 | 26.7 | 32.4 | 8.67 | 0.55 | 13 ± 3 | 12.1 | 24.3 | 36 | 75.5% | 67.8% | 79.8 ± 1.9% | 90.7% | 94% | 95.45 ± 0.25% | 90.3% | 81.9% | 94.5% |
| CCC1=C[C@@H]2CN(C1)Cc1c([nH]c3ccccc13)[C@@](C(=O)OC)(c1cc3c(cc1OC)N(C)[C@H]1[C@@](O)(C(=O)OC)[C@H](OC(C)=O)[C@]4(CC)C=CCN5CC[C@]31[C@@H]54)C2 [Vinorelbine] (max concentration tested 10000 nM) | – | – | – | – | – | – | – | – | – | – | 16.7 | 24.6 | 19.1 ± 0.81 | 20.8 | 40.6 | 30.2 ± 0.41 | 20.6 | 40.2 | 31.9 | 12.5 | 2.69 | 19.2 ± 3.6 | 13.5 | 19.7 | 34.4 | 78.9% | 80.5% | 80.4 ± 4.8% | 88.8% | 98.5% | 99.19 ± 0.43% | 94.7% | 94.3% | 94.5% |
| CS(=O)(=O)c1ccc(C(=O)Nc2ccc(Cl)c(-c3ccccn3)c2)c(Cl)c1 [Vismodegib] (max concentration tested 10000 nM) | – | – | – | – | – | – | – | – | – | – | 0 | 0.05 | 0 | 0 | 1.12 | 0 | 0 | 0 | 0 | 0 | 0 | 0 | 0 | 0 | 0 | -4.59% | 13.9% | 2.36 ± 1.7% | -4.33% | 17.3% | -4.72 ± 14% | -2.96% | 6.14% | 2.72% |
| CC[C@@H]1C(=O)N(C)c2cnc(Nc3ccc(C(=O)N[C@H]4CC[C@H](N5CCN(CC6CC6)CC5)CC4)cc3OC)nc2N1C(C)C [Volasertib] (max concentration tested 1000 nM) | – | – | – | – | – | – | – | – | – | – | 10.6 | 8.74 | 17.138 ± 0.0087 | 14.8 | 19.5 | 21.2 ± 0.31 | 14.4 | 15 | 23.5 | 12.8 | 0 | 13.2 ± 1.2 | 19.2 | 13.9 | 30.8 | 53% | 59.5% | 79.2 ± 8.9% | 79.3% | 59.3% | 95.95 ± 0.59% | 80.6% | 55.3% | 78.3% |
| O=C(CCCCCCC(=O)Nc1ccccc1)NO [Vorinostat] (max concentration tested 10000 nM) | – | – | – | – | – | – | – | – | – | – | 9.34 | 4.89 | 9.06 ± 1.5 | 8.25 | 8.6 | 7.84 ± 1.1 | 8.9 | 13 | 6.18 | 2.83 | 2.31 | 7.03 ± 1.4 | 4.21 | 5.36 | 3.21 | 90.6% | 79.2% | 103.1 ± 0.86% | 88.6% | 99.6% | 101.1 ± 0.69% | 101% | 100% | 83.9% |
| Oc1nc(-c2ccc(C(F)(F)F)cc2)nc2c1CSCC2 [XAV-939] (max concentration tested 10000 nM) | – | – | – | – | – | – | – | – | – | – | 6.05 | 1.55 | 2.76 ± 0.27 | 4.89 | 0 | 0 | 0 | 2.41 | 0.217 | 0 | 0 | 1.83 ± 2.6 | 0 | 0 | 0 | 37% | 23% | 33.8 ± 7.3% | 27.6% | 7.73% | 6.97 ± 4% | 0.935% | 23.1% | 16.5% |
| FC(F)c1nc2ccccc2n1-c1nc(N2CCOCC2)nc(N2CCOCC2)n1 [ZSTK474] (max concentration tested 10000 nM) | – | – | – | – | – | – | – | – | – | – | 8.75 | 3.54 | 13.5 ± 2.1 | 9.9 | 4.18 | 8 ± 0.68 | 8.94 | 15.1 | 14.6 | 0 | 0 | 0.69 ± 0.011 | 0.497 | 0 | 0 | 75.7% | 30.6% | 76.7 ± 9% | 77.2% | 38.2% | 59.4 ± 5% | 69.7% | 81.3% | 80% |
